Results published in PMC6152638, “Anti-Inflammatory Phenolic Acid Esters from the Roots and Rhizomes of Notopterygium incisium and Their Permeability in the Human Caco-2 Monolayer Cell Model” (Molecules : A Journal of Synthetic Chemistry and Natural …, 2017).
“Also recorded” adds a separate entry of the source. Read-outs that look alike come from different tables or passages of the source.

Assays:
[1] = test system: NO production in LPS-stimulated RAW264.7 cells; design: method as in PMID 28333094; conditions: cited from earlier work
[2] = test system: RAW264.7 cells; experiment: MTT cytotoxicity assay in RAW264.7 cells; conditions: viability less than 95% of control considered toxic
Description: The cell viability less than 95% of control was considered toxic.
Cell viability (>95%) was assessed by using an MTT assay.

[3] = Transport in the human intestinal Caco-2 cell monolayer model; type: in vitro ADME; conditions: human; for Papp B→A at 90 min, 50 µM / efflux ratio at 90 min, 50 µM: Caco-2; for Papp B→A at 90 min, 50 µM: basolateral to apical; for efflux ratio at 90 min, 50 µM: ratio of Papp BL→AP to Papp AP→BL
Description: (§1) For confluence and differentiation, cells were seeded at a density of 1 × 10^5 cells/cm^2 into 12-well Transwell plates (insert diameter 12 mm, pore size 3.0 μm, membrane growth area 1.12 cm^2, Costar® #3402) and were allowed to grow for 21 days before the permeation experiment. On Day 21, the monolayers with TEER values >500 Ω·cm^2 were qualified for the transport experiment. The transport study was initiated by the careful removal of the culture medium from AP and BL side of the inserts. Caco-2 monolayers were rinsed twice with pre-warmed HBSS and were incubated by pre-warmed HBSS for 30 min at 37 °C. Stock solutions of test phenolic acid esters were prepared in DMSO and diluted to 50 µM with HBSS. […] The assayed solutions (50 µM) were added to the AP side (0.5 mL, for absorption transport) or BL side (1.5 mL, for efflux transport) of the inserts, while the receiving chamber contained the corresponding volume of HBSS. Incubation was performed at 37 °C for 90 min, with shaking at 50 rpm. Samples were collected from the inserts, then frozen, lyophilized, redissolved in MeOH, and injected into HPLC system for quantitative analysis.
(§2) The Papp values were calculated as the following equation:Papp = (dQ/dt) × (1/A) × (1/C0) (cm/s)(1) where dQ/dt is the rate of the appearance of the test compound on the receiver compartment (μmol/s), C0 is the initial test compound concentration on the donor compartment (μmol/mL), and A is the surface area of Caco-2 monolayer (cm^2).

[4] = test system: Caco-2 cell monolayer; experiment: as above; type: in vitro ADME; conditions: for absorption assignment: assigned from Papp AP→BL against propranolol and atenolol; for amount in the receiving chambers: HPLC quantification after transport
Description: as §1, §2

[5] = test system: NO production in LPS-activated RAW264.7 macrophages; experiment: NO inhibitory assay in LPS-activated RAW264.7 macrophages (Griess); type: cell-based, murine; conditions: Mus musculus, read-out: IC50 on NO production
Description: Briefly, RAW 264.7 cells were maintained in DMEM containing 10% FBS, in a constant humidity atmosphere of 5% CO2 and 95% air at 37 °C, seeded in 96-well culture plates (Costar® #3599, Cambridge, MA, USA) at a density of 3 × 10^4 cells/well for 12 h, and then stimulated with LPS (1 μg/mL) and treated with various concentrations of assayed compounds for 24 h. After that, the cell culture supernatant (100 μL) was collected to react with Griess reagent (100 μL) for 15 min at room temperature. The nitrite in culture medium was measured as an indicator of NO production. NaNO2 was used to generate a standard curve, and NO production was determined by measuring the optical density at 540 nm in comparison with the standard curve. […] The experiments were performed in parallel three times, and L-NIL was used as a positive control. Cell viability (>95%) was assessed by using an MTT assay. The IC50 values were calculated by the software SPSS 16.0 (SPSS Inc., Chicago, IL, USA).

[6] = Stability of the phenolic acid esters in HPLC method validation (Table S1); type: physicochemical
Description: Quantitative analysis of nine phenolic acid esters was performed on a Dionex Ultimate™ 3000 UHPLC system (Dionex Corp., Sunnyvale, CA, USA), comprised of Ultimate 3000 pump, autosampler, column compartment, and diode array detector. The signals were acquired and processed applying a Chromeleon version 6.80 software (Dionex Corp., Sunnyvale, CA, USA). HPLC separation was performed on a C18 Luna® column (250 mm × 4.60 mm i.d., 5 μm) (Phenomenex, Torrance, CA, USA). […] The detection wavelength was set at 305 nm for 2, 270 nm for 3, 259 nm for 4, 325 nm for 1 and 5–9. Column oven was maintained at 25 °C, and the injected volume was 20 μL. The calibration curves were constructed by plotting peak area (y, mAU × min) versus concentration (x, µM). The linear equations across 1–75 µM were y = 0.0087x − 0.0041 with r^2 of 0.9994 for 1, y = 0.0066x − 0.0013 with r^2 of 0.9999 for 2, y = 0.0667x − 0.0269 with r^2 of 0.9997 for 4, y = 0.0917x + 0.0040 with r^2 of 0.9998 for 5, y = 0.0614x − 0.0038 with r^2 of 0.9999 for 6, y = 0.0623x + 0.0051 with r^2 of 0.9999 for 8, and y = 0.0639x − 0.0464 with r^2 of 0.9978 for 9. […] Quantification was carried out by peak area measurements in comparison with the calibration curves.

[7] = Caco-2, apical to basolateral, 50 µM, incubation up to 90 min, n = 4
[8] = Caco-2, values as stated in text
[9] = 50 µM, incubation up to 90 min, n = 4
[10] = RAW264.7, LPS 1 μg/mL, 24 h, n = 3

SMILES | IC50 [1] [µM] | cytotoxicity (MTT) ([2]; 0.78125–25 μM) | Papp A→B at 90 min, 50 µM [3, 7] [nm/s] | Papp A→B at 90 min, 50 µM [3, 8] [nm/s] | Papp B→A at 90 min, 50 µM [3, 9] [nm/s] | efflux ratio at 90 min, 50 µM [3] | absorption assignment [4] | IC50 [5, 10] [µM] | Stability ([6]; QC 5 μM) [%] | Stability ([6]; QC 25 μM) [%] | Stability ([6]; QC 50 μM) [%] | cytotoxicity (MTT) ([2]; 3.125–100 μM) | amount in the receiving chambers [4] | cytotoxicity (MTT) ([2]; 1.5625–50 μM) | cytotoxicity (MTT) ([2]; 0.25 to 8 μM) | IC50 ([5]; RAW264.7, 24 h) [µM]
COc1cc(/C=C/C(=O)OCC(O)COC(=O)/C=C/c2ccc(O)c(OC)c2)ccc1O [1,3-O-diferuloylglycerol] | 12 ± 1.07 | – | – | – | – | – | – | – | – | – | – | – | – | – | – | –
COc1cc(/C=C/C(=O)OCC(CO)OC(=O)/C=C/c2ccc(O)cc2)ccc1O (stereo not drawn) [1-O-feruloyl-2-O-p-coumaroylglycerol] | 9.12 ± 0.72 | – | – | – | – | – | – | – | – | – | – | – | – | – | – | –
CC/C(C)=C/CCOC(=O)/C=C/c1ccc(O)c(OC)c1 [Compound 1, 4-methyl-3-trans-hexenylferulate] | – | no toxicity | 5 ± 1.2 | < 10 | 6.2 ± 1.2 | 1.24 | poorly absorbed | 1.01 ± 0.08 | 93.56±1.02 | 95.65±0.56 | 92.25±1.63 | – | – | – | – | –
O=C(OCc1ccccc1)c1ccccc1O [Compound 2, benzylsalicylate] | – | – | 180 ± 16.3 | > 100 | 134 ± 6.3 | – | good absorption; also recorded: well-absorbed | 53.7 ± 4.13 | 98.84±2.09 | 94.57±1.85 | 97.25±2.09 | – | – | – | – | –
CC1(C)C2CCC1(C)C(OC(=O)C=Cc1ccccc1)C2 (stereo not drawn) [Compound 3, bornylcinnamate] | – | – | < 0.5 | < 1 | < 0.2 | – | poorly absorbed; also recorded: hardly permeate | 70.5 ± 25.9 | – | – | – | no toxicity | below the lower limit of detection | – | – | –
COc1ccc(C(=O)OCCc2ccc(O)cc2)cc1 [Compound 4, p-hydroxyphenethyl anisate] | – | – | 3.6 ± 0.4 | < 10 | 0.5 ± 0.1 | 0.15 | poorly absorbed | 11.1 ± 1.43 | 92.28±2.07 | 100.74±2.15 | 95.85±2.01 | no toxicity | – | – | – | –
COc1cc(/C=C/C(=O)OC2CC3CCC2(C)C3(C)C)ccc1O (stereo not drawn) [Compound 5, (−)-bornylferulate] | – | no toxicity | 0.8 ± 0.2 | < 1 | 1.3 ± 0.2 | 1.69 | poorly absorbed; also recorded: hardly permeate | 4.63 ± 1.73 | 96.29±0.99 | 94.56±0.96 | 95.85±1.01 | – | – | – | – | –
COc1cc(/C=C/C(=O)OC(C)C)ccc1O [Compound 6, isopropylferulate] | – | – | 176 ± 22.7 | > 100 | 138 ± 27.4 | 0.79 | good absorption; also recorded: well-absorbed | 12.6 ± 2.8 | 95.08±1.56 | 102.02±1.96 | 102.05±1.39 | – | – | no toxicity | – | –
CCCCCCCCCCCCCCCCCCCCCCCCCCCCCCOC(=O)/C=C/c1ccc(O)c(OC)c1 [Compound 7, trans-triacontyl-4-hydroxy-3-methoxycinnamate] | – | – | < 0.2 | < 1 | < 0.1 | – | poorly absorbed; also recorded: hardly permeate | – | – | – | – | – | below the lower limit of detection | – | had cytotoxicity | –
COc1ccc(CCOC(=O)/C=C/c2ccc(O)c(OC)c2)cc1 [Compound 8, 4-methoxyphenethylferulate] | – | – | 22.1 ± 0.7 | ~10 | 25.5 ± 4.4 | 1.15 | moderately absorbed | 2.47 ± 0.64 | 93.28±2.17 | 95.45±1.12 | 102.58±1.54 | – | – | no toxicity | – | –
COc1cc(/C=C/C(=O)OCCc2ccccc2)ccc1O [Compound 9, phenethylferulate] | – | – | 6.6 ± 1.6 | < 10 | 7 ± 1.8 | 1.06 | poorly absorbed | 2.73 ± 0.58 | 92.26±2.89 | 93.71±1.88 | 101.99±1.32 | – | – | no toxicity | – | –
COc1cc(/C=C/C(=O)O)ccc1O [Compound 10, ferulic acid, reference compound] | – | – | – | – | – | – | – | 67.9 ± 0.91 | – | – | – | – | – | – | – | –
O=C(O)/C=C/c1ccccc1 [Compound 11, cinnamic acid, reference compound] | – | – | – | – | – | – | – | > 200 | – | – | – | – | – | – | – | –
CC(=N)NCCCC[C@H](N)C(=O)O [L-NIL, reference compound] | – | – | – | – | – | – | – | – | – | – | – | – | – | – | – | 9.37 ± 1.57
CC(C)NCC(O)COc1cccc2ccccc12 (stereo not drawn) [propranolol, reference compound] | – | – | – | 229 | – | – | – | – | – | – | – | – | – | – | – | –
